Assay [1] deals with T1, Nitric oxide synthase, inducible (Mus musculus, UniProt P29477).
T1 sequence (P29477 whole entry): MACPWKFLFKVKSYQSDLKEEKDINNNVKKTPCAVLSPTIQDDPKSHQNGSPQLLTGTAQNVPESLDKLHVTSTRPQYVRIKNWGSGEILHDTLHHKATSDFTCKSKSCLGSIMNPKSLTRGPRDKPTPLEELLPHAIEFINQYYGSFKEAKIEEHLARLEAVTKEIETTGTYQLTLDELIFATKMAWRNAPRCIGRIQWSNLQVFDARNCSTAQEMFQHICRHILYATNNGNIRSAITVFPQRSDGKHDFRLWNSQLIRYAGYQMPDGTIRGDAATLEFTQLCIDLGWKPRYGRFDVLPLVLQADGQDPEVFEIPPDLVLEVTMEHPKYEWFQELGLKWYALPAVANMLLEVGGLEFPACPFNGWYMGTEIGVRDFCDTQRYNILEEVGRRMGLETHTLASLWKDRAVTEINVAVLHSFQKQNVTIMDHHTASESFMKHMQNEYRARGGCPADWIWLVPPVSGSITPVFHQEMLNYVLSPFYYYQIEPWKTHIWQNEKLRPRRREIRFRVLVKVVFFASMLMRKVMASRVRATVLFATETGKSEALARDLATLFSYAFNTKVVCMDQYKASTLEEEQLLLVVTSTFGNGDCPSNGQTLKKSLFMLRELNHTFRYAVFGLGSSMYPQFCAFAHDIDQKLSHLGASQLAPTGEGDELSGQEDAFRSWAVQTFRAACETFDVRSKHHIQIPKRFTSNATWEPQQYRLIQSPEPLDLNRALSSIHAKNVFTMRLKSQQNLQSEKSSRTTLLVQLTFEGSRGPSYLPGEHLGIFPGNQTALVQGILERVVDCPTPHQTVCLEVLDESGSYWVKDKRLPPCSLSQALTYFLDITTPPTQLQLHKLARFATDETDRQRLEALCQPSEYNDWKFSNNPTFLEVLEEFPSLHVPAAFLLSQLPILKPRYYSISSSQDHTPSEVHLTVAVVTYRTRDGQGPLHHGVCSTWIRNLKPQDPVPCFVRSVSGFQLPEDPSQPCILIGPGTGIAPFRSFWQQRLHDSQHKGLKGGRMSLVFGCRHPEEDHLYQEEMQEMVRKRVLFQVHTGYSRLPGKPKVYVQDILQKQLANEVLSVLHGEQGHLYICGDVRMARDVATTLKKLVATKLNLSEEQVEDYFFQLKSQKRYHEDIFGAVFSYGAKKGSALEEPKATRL
Briefly: Compound was tested in vitro for inhibitory activity against inducible nitric oxide synthase.

In the next assay the target is Nitric oxide synthase 1 (Rattus norvegicus, UniProt P29476). The experiment in a line: Compound was tested in vitro for inhibitory activity against nNOS (constitutive isoform found in neurons).
Nitric oxide synthase 1, sequence (P29476 whole entry, canonical isoform): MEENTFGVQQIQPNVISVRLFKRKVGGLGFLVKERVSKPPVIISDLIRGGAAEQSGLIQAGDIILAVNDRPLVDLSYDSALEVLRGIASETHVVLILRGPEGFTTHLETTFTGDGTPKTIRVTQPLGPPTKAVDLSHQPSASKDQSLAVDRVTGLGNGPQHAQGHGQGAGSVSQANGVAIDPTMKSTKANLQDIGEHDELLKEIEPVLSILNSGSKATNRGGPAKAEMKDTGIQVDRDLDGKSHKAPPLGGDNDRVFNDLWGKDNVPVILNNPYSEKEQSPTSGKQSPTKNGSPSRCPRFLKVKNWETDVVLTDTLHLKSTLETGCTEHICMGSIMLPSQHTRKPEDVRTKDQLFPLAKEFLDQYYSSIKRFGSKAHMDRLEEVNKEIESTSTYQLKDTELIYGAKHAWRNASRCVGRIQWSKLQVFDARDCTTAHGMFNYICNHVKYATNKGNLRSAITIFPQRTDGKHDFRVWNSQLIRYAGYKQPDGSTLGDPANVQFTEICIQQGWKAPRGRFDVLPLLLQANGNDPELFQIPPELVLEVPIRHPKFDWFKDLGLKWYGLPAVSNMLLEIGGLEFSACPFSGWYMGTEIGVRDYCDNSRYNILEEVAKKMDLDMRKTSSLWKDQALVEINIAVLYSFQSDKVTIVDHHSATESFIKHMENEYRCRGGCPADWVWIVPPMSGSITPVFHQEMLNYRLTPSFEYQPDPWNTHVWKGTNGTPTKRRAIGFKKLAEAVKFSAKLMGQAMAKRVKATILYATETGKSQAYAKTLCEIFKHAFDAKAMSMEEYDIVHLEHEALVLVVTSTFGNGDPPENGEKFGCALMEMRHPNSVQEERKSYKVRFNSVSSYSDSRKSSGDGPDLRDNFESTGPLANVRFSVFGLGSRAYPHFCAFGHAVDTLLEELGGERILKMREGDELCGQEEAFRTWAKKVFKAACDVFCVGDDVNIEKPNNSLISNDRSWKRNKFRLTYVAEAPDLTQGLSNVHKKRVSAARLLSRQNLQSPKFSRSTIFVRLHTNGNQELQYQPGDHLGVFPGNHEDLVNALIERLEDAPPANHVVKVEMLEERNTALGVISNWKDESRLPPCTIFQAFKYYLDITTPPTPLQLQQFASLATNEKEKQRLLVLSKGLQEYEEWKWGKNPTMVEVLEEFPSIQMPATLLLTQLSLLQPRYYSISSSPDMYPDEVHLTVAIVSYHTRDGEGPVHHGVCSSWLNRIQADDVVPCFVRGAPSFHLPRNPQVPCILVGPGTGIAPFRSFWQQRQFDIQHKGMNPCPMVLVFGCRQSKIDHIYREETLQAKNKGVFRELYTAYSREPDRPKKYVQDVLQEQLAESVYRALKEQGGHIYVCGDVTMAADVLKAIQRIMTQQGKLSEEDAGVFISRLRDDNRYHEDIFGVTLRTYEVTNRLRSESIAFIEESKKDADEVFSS

SMILES strings stand for the structures.

A word on the IC50: it is the midpoint of a concentration-inhibition curve. Regarding `N/C(=N/CCCC(N)[PH](=O)O)N[N+](=O)[O-]` (stereo not drawn), the IC50 in assay [1] is over 100 µM; against Nitric oxide synthase 1, 45 µM.

In the case of `N=C(N)NCCCC(N)P(=O)(O)O` (stereo not drawn), the IC50 (in assay [1]; on Nitric oxide synthase 1) was over 100 µM in each case.

For the compound `NC(N)=NCCCC(N)[PH](=O)O` (stereo not drawn), the IC50 (in assay [1]; at Nitric oxide synthase 1) was over 100 µM each time.

For the compound `N/C(=N/CCCC(N)P(=O)(O)O)N[N+](=O)[O-]` (stereo not drawn), the IC50 (in assay [1]; against Nitric oxide synthase 1) was over 100 µM in each case.

Regarding `CNC(=N)NCCCC(N)P(=O)(O)O` (stereo not drawn), the 50% inhibitory concentration (IC50) (in assay [1]; against Nitric oxide synthase 1) was over 100 µM each time.

Regarding `CNC(=N)NCCCC(N)[PH](=O)O` (stereo not drawn), the 50% inhibitory concentration (IC50) in assay [1] is over 100 µM; at Nitric oxide synthase 1, 100 µM.

For the compound `N=C(NCCC[C@H](N)C(=O)O)N[N+](=O)[O-]` [NITROARGININE], in assay [1], the IC50 is 10 µM.

The record behind these values is ChEMBL document CHEMBL1129234, “Synthesis of phosphorus-containing amino acid analogs as inhibitors of nitric oxide synthase” (Bioorg Med Chem Lett, 1996).
